Experimental data published in ChEMBL document CHEMBL1130428, “Design, synthesis, and cocrystal structure of a nonpeptide Src SH2 domain ligand” (J Med Chem, 1997).

Target: Tyrosine-protein kinase transforming protein Src (Rous sarcoma virus)
Assay: Inhibition of [125I]phosphopeptide binding to Src SH2 domain.

Question: How did the IC50 turn out when `CC[C@H](C)[C@H](NC(=O)[C@H](CCC(=O)O)NC(=O)[C@H](CCC(=O)O)NC(=O)[C@@H](CC(=O)O)Cc1ccc(OP(=O)(O)O)cc1)C(=O)N[C@@H](CCC(=O)O)C(=O)O` was run?
Answer: Its IC50 is 0.4 µM.

Question: `CN(CCCC1CCCCC1)C(=O)[C@H](CCC(=O)O)NC(=O)NCc1ccc(OP(=O)(O)O)cc1` was tested. Which IC50 did it give?
Answer: The IC50 was 12 µM.
